Source: patent US9604933B2, “Pyrazolochalcones as potential anticancer agents” (COUNCIL OF SCIENTIFIC AND INDUSTRIAL RESEARCH, priority 2013, dated 2017)

What was measured:
HCT-116 = assay: NCI SRB cytotoxicity, colon HCT-116; type: cell-based; conditions: Homo sapiens, 48 h exposure
Description: (§1) The pyrazolochalcones (7e, 8e, 10e, 11e, 12e, 13e and 8f) have been tested against fifty nine human tumor cell lines derived from nine cancer types (leukemia, non-small cell lung cancer, colon cancer, CNS cancer, melanoma, ovarian cancer, renal cancer, prostate cancer and breast cancer) as per the NCI protocol. For each compound, dose response curves for individual cell lines have been measured at a minimum of five concentrations at 10 fold dilutions. A protocol of 48 h continuous drug exposure has been used, and a sulforhodamine B (SRB) protein assay has been used to estimate cell viability or growth. The concentration for 50% cell growth inhibition (GI50), 50% cell death (LC50, 50% growth) and total cell growth inhibition (TGI, 0% growth) values were tabulated (Table-1). DMSO was used as control to calculate the values of GI50, LC50 and TGI. The compounds 7e, 8e, 10e, 11e, 12e, 13e and 8f has been evaluated for their in vitro cytotoxicity in […] cell lines from nine human cancer types of leukemia (K-562, SR), non-small cell lung (Hop-62, NCI-H226, NCI-H522), colon (HCT-116, HCT-15, HCC-2998), CNS (SF-539), melanoma (SK-MEL-5, UACC-62, M14), ovarian (IGROV1), renal (A498), prostate (PC3) and breast (BT-549, MDA-MB-435, HS578T) origin. The results are expressed as percent of cell growth determined relative to that of untreated control cells (Table 2).

Melanoma = assay: NCI SRB cytotoxicity, melanoma panel average; type: cell-based, human; conditions: average of cell lines
Description: as §1
(§2) Each cancer type represents the average of six to eight different cancer cell lines.

NCI-H460 = assay: NCI SRB cytotoxicity, non-small cell lung NCI-H460; type: cell-based; conditions: Homo sapiens, 48 h exposure
Description: as §1

Leukemia = assay: NCI SRB cytotoxicity, leukemia panel average; type: cell-based, human; conditions: average of cell lines
Description: as §1, §2

NCI-H23 = assay: NCI SRB cytotoxicity, non-small cell lung NCI-H23; type: cell-based; conditions: Homo sapiens, 48 h exposure
Description: as §1

MCF7 = assay: NCI SRB cytotoxicity, breast MCF7; type: cell-based; conditions: Homo sapiens, 48 h exposure
Description: as §1

MOLT-4 = assay: NCI SRB cytotoxicity, leukemia MOLT-4; type: cell-based; conditions: Homo sapiens, 48 h exposure
Description: as §1

SN12C = assay: NCI SRB cytotoxicity, renal SN12C; type: cell-based; conditions: Homo sapiens, 48 h exposure
Description: as §1

UO-31 = assay: NCI SRB cytotoxicity, renal UO-31; type: cell-based; conditions: Homo sapiens, 48 h exposure
Description: as §1

CCRF-CEM = assay: NCI SRB cytotoxicity, leukemia CCRF-CEM; type: cell-based; conditions: Homo sapiens, 48 h exposure
Description: as §1

HS 578T = assay: NCI SRB cytotoxicity, breast HS 578T; type: cell-based; conditions: Homo sapiens, 48 h exposure
Description: as §1

MDA-MB-231/ATCC = assay: NCI SRB cytotoxicity, breast MDA-MB-231/ATCC; type: cell-based; conditions: Homo sapiens, 48 h exposure
Description: as §1

PC-3 = assay: NCI SRB cytotoxicity, prostate PC-3; type: cell-based; conditions: Homo sapiens, 48 h exposure
Description: as §1

Non-small cell lung = assay: NCI SRB cytotoxicity, non-small cell lung panel average; type: cell-based, human; conditions: average of cell lines
Description: as §1, §2

Prostate = assay: NCI SRB cytotoxicity, prostate panel average; type: cell-based, human; conditions: average of cell lines
Description: as §1, §2

SF-539 = assay: NCI SRB cytotoxicity, CNS SF-539; type: cell-based; conditions: Homo sapiens, 48 h exposure
Description: as §1

RXF 393 = assay: NCI SRB cytotoxicity, renal RXF 393; type: cell-based; conditions: Homo sapiens, 48 h exposure
Description: as §1

OVCAR-3 = assay: NCI SRB cytotoxicity, ovarian OVCAR-3; type: cell-based; conditions: Homo sapiens, 48 h exposure
Description: as §1

Renal = assay: NCI SRB cytotoxicity, renal panel average; type: cell-based, human; conditions: average of cell lines
Description: as §1, §2

UACC-62 = assay: NCI SRB cytotoxicity, melanoma UACC-62; type: cell-based; conditions: Homo sapiens, 48 h exposure
Description: as §1

TK-10 = assay: NCI SRB cytotoxicity, renal TK-10; type: cell-based; conditions: Homo sapiens, 48 h exposure
Description: as §1

Colon = assay: NCI SRB cytotoxicity, colon panel average; type: cell-based, human; conditions: average of cell lines
Description: as §1, §2

K-562 = assay: NCI SRB cytotoxicity, leukemia K-562; type: cell-based; conditions: Homo sapiens, K562, 48 h exposure
Description: as §1

HL-60(TB) = assay: NCI SRB cytotoxicity, leukemia HL-60(TB); type: cell-based; conditions: Homo sapiens, 48 h exposure
Description: as §1

SNB-75 = assay: NCI SRB cytotoxicity, CNS SNB-75; type: cell-based; conditions: Homo sapiens, 48 h exposure
Description: as §1

SK-MEL-2 = assay: NCI SRB cytotoxicity, melanoma SK-MEL-2; type: cell-based; conditions: Homo sapiens, 48 h exposure
Description: as §1

A549/ATCC = assay: NCI SRB cytotoxicity, non-small cell lung A549/ATCC; type: cell-based; conditions: Homo sapiens, 48 h exposure
Description: as §1

UACC-257 = assay: NCI SRB cytotoxicity, melanoma UACC-257; type: cell-based; conditions: Homo sapiens, 48 h exposure
Description: as §1

Ovarian = assay: NCI SRB cytotoxicity, ovarian panel average; type: cell-based, human; conditions: average of cell lines
Description: as §1, §2

NCI/ADR-RES = assay: NCI SRB cytotoxicity, ovarian NCI/ADR-RES; type: cell-based; conditions: Homo sapiens, 48 h exposure
Description: as §1

[1] = Homo sapiens, read-out: Log10 LC50 (concentration in mol/L causing 50% cell death) (converted)

## COc1cc(-c2cc(/C=C/C(=O)c3ccc(F)c(F)c3)[nH]n2)cc(OC)c1OC [13e, (E)-1-(3,4-difluorophenyl)-3-(3-(3,4,5-trimethoxyphenyl)-1H-pyrazol-5-yl)prop-2-en-1-one]
HCT-116
  GI50: 4 µM
Melanoma; [1]
  LC50: 64.6 µM
Melanoma
  Log10 GI50 (concentration in mol/L causing 50% growth inhibition): −5.56 mol/L
  Log10 TGI (concentration in mol/L causing total growth inhibition): −5.00 mol/L
NCI-H460
  GI50: 2.96 µM
Leukemia; [1]
  CC50: 0.0001 mol/L
Leukemia
  Log10 GI50 (concentration in mol/L causing 50% growth inhibition): −5.57 mol/L
  Log10 TGI (concentration in mol/L causing total growth inhibition (0% growth)): −4.76 mol/L
NCI-H23
  GI50: 2.6 µM
MCF7
  GI50: 3.2 µM
MOLT-4
  GI50: 2.72 µM
SN12C
  GI50: 3.37 µM
UO-31
  GI50: 2.63 µM
CCRF-CEM
  GI50: 3.8 µM
HS 578T
  GI50: 3.58 µM
MDA-MB-231/ATCC
  GI50: 1.64 µM
PC-3
  GI50: 1.66 µM
Non-small cell lung; [1]
  LC50: 87.1 µM
Non-small cell lung
  Log10 GI50 (concentration in mol/L causing 50% growth inhibition): −5.54 mol/L
  Log10 TGI (concentration in mol/L causing total growth inhibition (0% growth)): −4.75 mol/L
Prostate; [1]
  CC50: 0.0001 mol/L
Prostate
  Log10 GI50 (concentration in mol/L causing 50% growth inhibition): −5.78 mol/L
  Log10 TGI (concentration in mol/L causing total growth inhibition (0% growth)): −5.24 mol/L
SF-539
  GI50: 3.76 µM
RXF 393
  GI50: 2.05 µM
OVCAR-3
  GI50: 2.39 µM
Renal; [1]
  CC50: 93.3 µM
Renal
  Log10 GI50 (concentration in mol/L causing 50% growth inhibition): −5.56 mol/L
  Log10 TGI (concentration in mol/L causing total growth inhibition (0% growth)): −4.71 mol/L
UACC-62
  GI50: 2.38 µM
TK-10
  GI50: 2.29 µM
Colon; [1]
  LC50: 58.9 µM
Colon
  Log10 GI50 (concentration in mol/L causing 50% growth inhibition): −5.52 mol/L
  Log10 TGI (concentration in mol/L causing total growth inhibition): −4.70 mol/L
K-562
  GI50: 3.31 µM
HL-60(TB)
  GI50: 2.48 µM
SNB-75
  GI50: 2.9 µM
SK-MEL-2
  GI50: 2.3 µM
A549/ATCC
  GI50: 2.43 µM
UACC-257
  GI50: 1.75 µM
Ovarian; [1]
  CC50: 89.1 µM
Ovarian
  Log10 GI50 (concentration in mol/L causing 50% growth inhibition): −5.5 mol/L
  Log10 TGI (concentration in mol/L causing total growth inhibition (0% growth)): −4.45 mol/L
NCI/ADR-RES
  GI50: 3.46 µM
